Data on 1 compound can be found in US10980788B2, “Therapy for treating malignancies” (Agios Pharmaceuticals, Inc., priority 2018, dated 2021).

Read-outs that look alike come from different tables or passages of the source.

A short description of data set [1]: Food effect on pharmacokinetics of COMPOUND 1 in healthy subjects (phase 1, open-label, randomized, two-period crossover). The data set is classed as in vivo, human. The conditions noted are these: for Tmax / half-life / AUC(0-inf) / AUC(0-t) / Cmax: plasma, single oral dose 500 mg. Here is the method:
The food effect on COMPOUND 1 PK following administration of a single oral dose of 500 mg of COMPOUND 1 in healthy subjects aged 18-55 years was evaluated in a was a phase 1, open-label, randomized, two-period crossover study.
The study was conducted according to the United States Food and Drug Administration (FDA) 2002 Guidance for Industry “Food-Effect Bioavailability and Fed Bioequivalence Studies”.
Treatments A and B, each comprising a single oral dose of 500 mg of COMPOUND 1, were administered as shown in Table 1. • A (fasted): two 250 mg tablets administered after an overnight fast (approximately 10 hr). • B (fed): two 250 mg tablets administered after a standardized high-fat breakfast, consumed within 30 minutes prior to COMPOUND 1 dosing.
The standardized FDA high-fat content meal contains the equivalent of ˜150 protein calories, ˜250 carbohydrate calories, and ˜500-600 fat calories, and comprises two eggs fried in butter, two strips of bacon, two slices of toast with butter, four ounces of hash brown potatoes (fried with butter), and eight ounces (240 mL) of whole milk.
Of the 30 subjects enrolled, 15 were randomized to sequence AB and 15 were randomized to sequence BA.
Blood samples for the analysis of COMPOUND 1 concentrations were collected predose and 0.5, 1, 2, 3, 4, 6, 9, 12, 24, 48, 72, 120, 168, 240, 336, and 504 hr postdose. Plasma concentrations of COMPOUND 1 were determined using a validated liquid chromatography with tandem mass spectrometry method. PK parameters were calculated using WinNonlin (Pharsight Corporation, Version 6.2.1). Linear mixed model analysis was performed on natural logarithm (In) transformed maximum observed concentration (Cmax), area under the concentration-time curve from Hour 0 to the last measurable concentration (AUC0-t), and area under the concentration-time curve extrapolated to infinity (AUC0-∞). The analyses were performed using the SAS MIXED procedure. […] Inter-subject variability was determined using the geometric coefficient of variation percent (CV %).

Data set [2] in a line: Safety and tolerability of a single oral dose of 500 mg COMPOUND 1 in healthy subjects. The data set is classed as in vivo, human. The settings on record: single oral dose of 500 mg, fed and fasted conditions. On the procedure: Safety and tolerability were also evaluated for a single oral dose of 500 mg of COMPOUND 1.
Incidence of adverse events and serious adverse events was assessed.

Setting [3] is: fed condition (test) versus fasted condition (reference), 500 mg, n = 27.
[4] abbreviates: high-fat meal compared with fasted condition, 500 mg single oral dose.
[5] abbreviates: human, po, 500 mg, fasted, n = 29, geometric mean.
The mark [6] stands for this setting: human, po, 500 mg, fed (high-fat meal), n = 27, geometric mean.

By half-life is commonly meant the time needed for the level to fall by half in the phase considered. Take `N#Cc1ccnc(N2C(=O)CC[C@H]2C(=O)N(c2cncc(F)c2)[C@H](C(=O)NC2CC(F)(F)C2)c2ccccc2Cl)c1` [COMPOUND 1, (S)—N—((S)-1-(2-chlorophenyl)-2-((3,3-difluorocyclobutyl)amino)-2-oxoethyl)-1-(4-cyanopyridin-2-yl)-N-(5-fluoropyridin-3-yl)-5-oxopyrrolidine-2-carboxamide]: in data set [1] (setting [3]), the “Geometric mean ratio (%) AUC0-t” value was 125.6%, the “Geometric mean ratio (%) AUC0-∞” value was found to be 124.3% and the “Geometric mean ratio (%) Cmax” value was 197.8%. For the same compound, in data set [1] (setting [4]), the “Increase in extent of exposure as assessed by AUC0-t” value is on record as 25.6%, the “Increase in extent of exposure as assessed by AUC0-∞” value is 24.3% and the “Increase in mean Cmax” value is listed as ~2 fold. Moreover, the “Increase in AUC” value in data set [1] (high-fat meal prior to dosing compared with fasted, 500 mg single oral dose) was ~25%. In data set [1] (human, po, 500 mg, fasted, n = 29, median, read-out: Tmax), the Tmax came to 3 h. Also, the Tmax in data set [1] (human, po, 500 mg, fed (high-fat meal), n = 27, median, read-out: Tmax) was found to be 3 h. In data set [1] (human, po, 500 mg, fasted, n = 29, arithmetic mean), this compound had a half-life of 55.4 h. In data set [1] (setting [5]), the AUC(0-inf) was found to be 143 µg·h/mL, the AUC(0-t) was 136 µg·h/mL and the Cmax is 2270 ng/mL. This compound also had a half-life in data set [1] (human, po, 500 mg, fed (high-fat meal), n = 27, arithmetic mean) of 53.2 h. Further, in data set [1] (setting [6]), the AUC(0-inf) came to 174 µg·h/mL, the AUC(0-t) amounted to 166 µg·h/mL and the Cmax turned out to be 4490 ng/mL. Also, in data set [1] (fasted, n = 29, median), the Tmax stood at 3.03 h. For the same compound, the Safety and tolerability result in data set [2] was “safe and well tolerated”.
